Drawing on article PMC12144862, “Structural Basis of Sequential Enantioselective Epoxidation by a Flavin-Dependent Monooxygenase in Lasalocid A Biosynthesis” (Angewandte Chemie (International ed. in English), 2025), this text covers LC-MS epoxidation assay for one compound.

The structures appear in SMILES notation.

The test deals with T1, Lsd18 (Streptomyces lasalocidi, UniProt B5M9L6).
T1 construct: recombinant Lsd18 with FAD; two molecules in the asymmetric unit
As to the kind of experiment: LC-MS epoxidation assay. Type of test: biochemical. The conditions noted are these: forms mono- and bisepoxide.

T1 sequence (B5M9L6 whole entry): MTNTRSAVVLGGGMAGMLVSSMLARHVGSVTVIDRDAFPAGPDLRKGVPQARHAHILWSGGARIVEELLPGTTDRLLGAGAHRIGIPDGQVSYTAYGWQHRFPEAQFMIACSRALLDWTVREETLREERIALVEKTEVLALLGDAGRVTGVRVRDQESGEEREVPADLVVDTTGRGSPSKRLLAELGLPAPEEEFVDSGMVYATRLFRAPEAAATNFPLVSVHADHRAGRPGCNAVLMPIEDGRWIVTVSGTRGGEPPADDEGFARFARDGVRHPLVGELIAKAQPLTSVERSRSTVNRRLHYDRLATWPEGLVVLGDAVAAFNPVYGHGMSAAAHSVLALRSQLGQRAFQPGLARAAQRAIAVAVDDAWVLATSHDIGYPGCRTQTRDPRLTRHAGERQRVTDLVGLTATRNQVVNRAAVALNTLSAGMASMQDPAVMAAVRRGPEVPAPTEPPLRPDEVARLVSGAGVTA

Consider `CC(=O)OC/C=C(\C)CC/C=C(\C)CCC=C(C)C` [farnesyl acetate], for which the LC-MS epoxidation assay entry was “Lsd18 transforms farnesyl acetate, a natural sesquiterpene, into a bisepoxide”.
